What all share (assay type): cell-based, mouse
The subject of data set [1] is SOX6 biomolecular condensates. The data set is described as follows: confocal immunofluorescence coupled with RNA-FISH of Sox6 condensates in intermediate oligodendrocytes. Particulars: upon addition of the drug. The text has this:
Given the massive density of SOX6, an inherently disordered protein, at super-enhancer associated genes that increase sharply in intermediate oligodendrocytes and then decrease in myelinating oligodendrocytes, it was hypothesized that these regions represent SOX6 biomolecular condensates that stabilize, not inhibit, the intermediate oligodendrocyte state (FIGS. 8F and 8G) (Daneshvar et al., 2020; Henninger et al., 2020; Hnisz et al., 2017; Sabari et al., 2018). Performing high resolution confocal microscopy of immunofluorescence coupled with RNA-FISH confirmed Sox6 puncta in intermediate oligodendrocytes that co-localized with the predicted Sox6 aggregate gene Bcas1, whereas this co-localization was severely diminished at the non-aggregate gene Gapdh.

Another data set has as its system oligodendrocytes. Nature of the data set: RNA-seq gene set enrichment analysis (GSEA) of SOX6 knockout oligodendrocytes. Conditions: SOX6 knockout vs control (sgNTC) oligodendrocytes, day 3 of differentiation. The text has this: (§1) Generation of mouse CRISPR KO OPCs: CRISPR knockout (KO) OPCs were created following a similar protocol used previously (Allan et al., 2020; Tripathi et al., 2019). In brief, guides were selected from the Brie library (Doench et al., 2016), cloned into the linearized CRISPRv2 backbone (Addgene 52961) (Sanjana et al., 2014), and sequence verified by sanger sequencing. HEK293T cells (Clonetech) were than transfected using lenti-X shots (manufacturer's protocol, Clonetech). Transfection media was replaced with N2B27 base media the following day. Lentivirus containing N2B27 was then collected after an additional 2 days, filtered, and supplemented with OPC growth factors PDGFA and FGF2 and added to OPCs at a ratio of 1:2 viral media to OPC growth media. The viral media was switched out for virus-free OPC growth the next day and allowed to recover for an additional 2 days. At this point, infected OPCs were selected for 96 hours in OPC growth media supplemented with a lethal dose of puromcyin (500 ng/mL). OPCs were allowed to recover in selection free media for at least 24 hours prior to being aliquoted and frozen down. For all experiments, infected CRISPR KO and non-targeting control OPCs were derived from the same original batch of EpiSC-derived mouse OPCs. qPCR was performed to validate a reduction of gene targets for each batch of CRISPR KO OPCs generated.
Bulk RNA-seq sample preparation and alignment: OPCs were lysed in TRIzol and RNA was isolated as described for qPCR. Purified RNA was then submitted to Novogene for library preparation and sequencing on the Illumina NovaSeq (150 bp paired end). For gene expression analysis, reads were aligned to the mm10 genome and quantified in transcripts per million (TPM) values using salmon 0.14.1 (github dot com slash COMBINE-lab slash salmon). Transcripts were summarized as gene-level TPM abundances with tximport. A gene with TPM>1 was considered expressed. Differential expression analysis was performed using DESEQ2 (bioconductor.org slash packages slash release slash bioc slash html slash DESeq2 dot html). Significant genes were called based on p-adj and fold change values as described in the results section.
RNA-seq was then performed on SOX6 knockout OPCs and differentiating oligodendrocyte cultures compared to non-targeting controls (FIGS. 10B and 11A). In agreement with binding at nearly all super-enhancers in OPCs, Sox6 knockout OPCs harbored a reduction in OPC signature genes and transcription factors such as Cspg4 and Sox10 (FIGS. 11A-11C). In differentiating oligodendrocytes, loss of SOX6 led to a reduction in Sox6 condensate gene expression (FIGS. 10B, 10C, and 11D). In agreement with these condensate genes stabilizing genes transiently expressed by intermediate oligodendrocytes, SOX6 knockout oligodendrocytes harbored a significant reduction in intermediate oligodendrocyte gene expression (FIGS. 10D and 11E).

The next data set deals with SOX6. The data set is described as follows: Western blot of SOX6 in CRISPR-Cas9 knockout OPCs. Particulars: knockout OPCs compared to non-targeting control (sgNTC).
Excerpt: as §1, with “At this point, infected OPCs were selected for 96 hours in OPC growth media supplemented with a lethal dose of puromcyin (500 ng/mL). OPCs were allowed to recover in selection free media for at least 24 hours prior to being aliquoted and frozen down. For all experiments, infected CRISPR KO and non-targeting control OPCs were derived from the same original batch of EpiSC-derived mouse OPCs. qPCR was performed to validate a reduction of gene targets for each batch of CRISPR KO OPCs generated.” left out
Western blot: For cell culture derived protein samples, at least 1 million OPCs were collected and lysed in RIPA buffer (Sigma) supplemented with protease and phosphatase inhibitor (78441, Thermo Fisher) for at least 15 minutes and cleared by centrifugation at 13,000 g at 4° C. for 15 minutes. Protein concentrations were determined using the Bradford assay (Bio-Rad Laboratories). […] Membranes were then imaged and analyzed using Image Studio™ software. […]

For `Cc1sc2c(c1C)C(c1ccc(Cl)cc1)=N[C@@H](CC(=O)OC(C)(C)C)c1nnc(C)n1-2` [JQ1], the “effect on Sox6 biomolecular condensates” value in data set [1] is “dissolved”.
In the case of “sgSox6 g1: single guide RNA for CRISPR-Cas9 SOX6 knockout, sequence TTGACGGAATGAACTGTACG (listed as DNA, chemistry not given here)”, in the data set on oligodendrocytes, the “GSEA of SOX6 aggregate (condensate) genes” value is recorded as “significant depletion”, the “GSEA of in vivo OPC signature genes” value is on record as “significant depletion”, the “GSEA of in vivo intermediate oligodendrocyte signature genes” value is “significant depletion” and the “GSEA of in vivo myelinating oligodendrocyte signature genes” value is “enrichment”. Further, the SOX6 expression entry in the data set with SOX6 was “strong reduction”.
On to “sgSox6 g2: single guide RNA for CRISPR-Cas9 SOX6 knockout, sequence AGAACACGCTTTGAGAACCT (listed as DNA, chemistry not given here)”, for which, in the data set on oligodendrocytes, the “GSEA of SOX6 aggregate (condensate) genes” value is given as “significant depletion”, the “GSEA of in vivo OPC signature genes” value is on record as “significant depletion”, the “GSEA of in vivo intermediate oligodendrocyte signature genes” value is listed as “significant depletion” and the “GSEA of in vivo myelinating oligodendrocyte signature genes” value is recorded as “enrichment”. For the same compound, the SOX6 expression result in the data set on SOX6 was “strong reduction”.

Source of the values: patent US20240167030A1, “METHODS AND COMPOSITIONS FOR ACCELERATING OLIGODENDROCYTE MATURATION” (Case Western Reserve University, priority 2021, published 2024).
